In patent publication US9751865B2, “Dihydro-hydantoin derivatives with herbicidal activity” (SYNGENTA PARTICIPATIONS AG, priority 2013, dated 2017):

Tests used:
Type in all cases: in vivo
Amaranthus retroflexus [1] = test: Pre-emergence herbicidal activity, AMARE; set-up: key: 5=total damage to plant; 0=no damage to plant; conditions: application pre-emergence, 1000 g/Ha, evaluated after 13 days, scale 0-5
Procedure: (§1) Seeds of a variety of test species were sown in standard soil in pots. After cultivation for one day (pre-emergence) under controlled conditions in a glasshouse (at 24/16° C., day/night; 14 hours light; 65% humidity), the plants were sprayed with an aqueous spray solution derived from the formulation of the technical active ingredient in acetone/water (50:50) solution containing 0.5% Tween 20 (polyoxyethelyene sorbitan monolaurate, CAS RN 9005-64-5). The test plants were then grown in a glasshouse under controlled conditions (at 24/16° C., day/night; 14 hours light; 65% humidity) and watered twice daily. After 13 days, the test was evaluated (5=total damage to plant; 0=no damage to plant).

Abutilon theophrasti [2] = test: Post-emergence herbicidal activity, ABUTH; set-up: key: 5=total damage to plant; 0=no damage to plant; conditions: application post-emergence, 1000 g/Ha, evaluated after 13 days, scale 0-5
Procedure: (§2) Seeds of a variety of test species were sown in standard soil in pots. After 8 days cultivation (post-emergence) under controlled conditions in a glasshouse (at 24/16° C., day/night; 14 hours light; 65% humidity), the plants were sprayed with an aqueous spray solution derived from the formulation of the technical active ingredient in acetone/water (50:50) solution containing 0.5% Tween 20 (polyoxyethelyene sorbitan monolaurate, CAS RN 9005-64-5). The test plants were then grown in a glasshouse under controlled conditions (at 24/16° C., day/night; 14 hours light; 65% humidity) and watered twice daily. After 13 days, the test was evaluated (5=total damage to plant; 0=no damage to plant).

Setaria faberi [3] = test: Pre-emergence herbicidal activity, SETFA; conditions: application pre-emergence, 1000 g/Ha, evaluated after 13 days, scale 0-5
Procedure: as §1

Zea mays [4] = test: Post-emergence herbicidal activity, ZEAMX; set-up: key: 5=total damage to plant; 0=no damage to plant; conditions: application post-emergence, 1000 g/Ha, evaluated after 13 days, scale 0-5
Procedure: as §2

Echinochloa crus-galli [5] = test: Post-emergence herbicidal activity, ECHCG; set-up: key: 5=total damage to plant; 0=no damage to plant; conditions: application post-emergence, 1000 g/Ha, evaluated after 13 days, scale 0-5
Procedure: as §2

Alopecurus myosuroides [6] = test: Post-emergence herbicidal activity, ALOMY; set-up: key: 5=total damage to plant; 0=no damage to plant; conditions: application post-emergence, 1000 g/Ha, evaluated after 13 days, scale 0-5
Procedure: as §2

Zea mays [7] = test: Pre-emergence herbicidal activity, ZEAMX; conditions: application pre-emergence, 1000 g/Ha, evaluated after 13 days, scale 0-5
Procedure: as §1

Amaranthus retroflexus [8] = test: Post-emergence herbicidal activity, AMARE; set-up: key: 5=total damage to plant; 0=no damage to plant; conditions: application post-emergence, 1000 g/Ha, evaluated after 13 days, scale 0-5
Procedure: as §2

Echinochloa crus-galli [9] = test: Pre-emergence herbicidal activity, ECHCG; conditions: application pre-emergence, 1000 g/Ha, evaluated after 13 days, scale 0-5
Procedure: as §1

Alopecurus myosuroides [10] = test: Pre-emergence herbicidal activity, ALOMY; conditions: application pre-emergence, 1000 g/Ha, evaluated after 13 days, scale 0-5
Procedure: as §1

Abutilon theophrasti [11] = test: Pre-emergence herbicidal activity, ABUTH; set-up: key: 5=total damage to plant; 0=no damage to plant; conditions: application pre-emergence, 1000 g/Ha, evaluated after 13 days, scale 0-5
Procedure: as §1

Setaria faberi [12] = test: Post-emergence herbicidal activity, SETFA; set-up: key: 5=total damage to plant; 0=no damage to plant; conditions: application post-emergence, 1000 g/Ha, evaluated after 13 days, scale 0-5
Procedure: as §2

Row | Compound | AMARE damage score (Amaranthus retroflexus [1]) | ABUTH damage score (Abutilon theophrasti [2]) | SETFA damage score (Setaria faberi [3]) | ZEAMX damage score (Zea mays [4]) | ECHCG damage score (Echinochloa crus-galli [5]) | ALOMY damage score (Alopecurus myosuroides [6]) | ZEAMX damage score (Zea mays [7]) | AMARE damage score (Amaranthus retroflexus [8]) | ECHCG damage score (Echinochloa crus-galli [9]) | ALOMY damage score (Alopecurus myosuroides [10]) | ABUTH damage score (Abutilon theophrasti [11]) | SETFA damage score (Setaria faberi [12])
1 | C[C@@H]1C(O)N(c2cc(C(F)(F)F)n(C)n2)C(=O)N1C (stereo partly drawn) [Compound A15, (5R)-4-hydroxy-1,5-dimethyl-3-[1-methyl-5-(trifluoromethyl)pyrazol-3-yl]imidazolidin-2-one] | 5 | 5 | 3 | 5 | 5 | 5 | 1 | 5 | 2 | 2 | 5 | 5
2 | CC1NC(=O)N(c2cc(C(C)(C)C)n(C)n2)C1O (stereo not drawn) [Compound A17] | 5 | 4 | 3 | 0 | 3 | 3 | 1 | 4 | 4 | 3 | 4 | 2
